Laboratory results taken from patent US7345033B2, “Carbamoyl-and thiocarbamoyl-phosphonates and pharmaceutical compositions comprising them” (Yissum Research Development Company of the Hebrew …, priority 2003, dated 2008).
Where two headings read alike, the source gives them in different places.

Key:
cancer cells = assay: Matrigel chemoinvasion assay (Boyden chambers); type: cell-based; conditions: 6 h, read-out: Chemoinvasion % inhibition at 50 μM
Source text: Matrigel Chemoinvasion Assay
This assay measures in vitro the potency of the compounds to repress the invasiveness of cancer cells, by inhibiting the MMPs produced by them. The assay uses a reconstituted basement membrane preparation, which is similar to the natural basement membranes that the tumor cells have to cross, in order to disseminate. The compounds examined have been added to the invasion chambers at various concentrations, and the resulted invasion was compared to untreated preparations.
Description of the of the Matrigel Chemoinvasion Experiment
a) The chemoinvasion assays were performed in Boyden chambers. Matrigel (25 μg) was dried on a polycarbonated filter (PVP free, Nucleopore). Fibroblast conditioned medium (obtained from confluent NIH-3T3 cells cultured in serum free DMEM) is used as the chemoattractant. […] The chambers were incubated in a humidified incubator at 37° C. in 5% CO2/95% air atmosphere for 6 h. The cells, which traversed the Matrigel layer and attached to the lower surface of the filter, were stained with Diff Quick (American Scientific Products) and counted.
The various compounds were examined as potential inhibitors at three concentrations: 100 μM, 50 μM and 10 μM.

recombinant MMP-2 = target: T1, recombinant MMP-2 (Homo sapiens, UniProt P08253); assay: MMP inhibitory potency in vitro, succinylated-gelatin colorimetric assay; type: biochemical; conditions: for times more active on MMP-2 than its analog or isomer: 11 vs 6, 9 vs 9a, 10 vs 10a, 11 vs 11a
T1 construct: purchased
T1 sequence (P08253 110-660): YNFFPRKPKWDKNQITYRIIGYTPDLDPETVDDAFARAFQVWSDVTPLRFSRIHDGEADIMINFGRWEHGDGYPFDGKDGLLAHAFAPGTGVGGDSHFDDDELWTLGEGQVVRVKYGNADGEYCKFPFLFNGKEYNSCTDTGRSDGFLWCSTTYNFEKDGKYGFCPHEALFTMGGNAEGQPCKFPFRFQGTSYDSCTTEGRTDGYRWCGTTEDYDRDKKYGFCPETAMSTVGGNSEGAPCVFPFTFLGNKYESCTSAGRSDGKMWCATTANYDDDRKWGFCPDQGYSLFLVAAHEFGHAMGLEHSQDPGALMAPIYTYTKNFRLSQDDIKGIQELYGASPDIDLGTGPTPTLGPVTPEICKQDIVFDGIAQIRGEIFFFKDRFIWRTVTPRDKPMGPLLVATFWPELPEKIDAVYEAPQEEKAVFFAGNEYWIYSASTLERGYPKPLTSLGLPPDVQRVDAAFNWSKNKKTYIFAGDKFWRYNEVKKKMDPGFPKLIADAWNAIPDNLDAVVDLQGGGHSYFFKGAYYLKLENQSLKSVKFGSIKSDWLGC
Description: (§1) Determination of MMP Inhibitory Potency (IC50 Values) in vitro
(§2) The commercially available recombinant MMP-2 and MMP-9 enzymes were incubated with succinylated-gelatin at four different concentrations for 3 h. The examined compounds were added at four to six different concentrations to the recombinant enzymes and the inhibitory potencies were expressed in a colorimetric change measured by an ELISA reader. The inhibitory activity (IC50) was calculated from the kinetic data obtained.

recombinant MMP-9 = target: T2, recombinant MMP-9 (Homo sapiens, UniProt P14780); assay: as above; type: biochemical
T2 construct: purchased
T2 sequence (P14780 94-707, species assumed): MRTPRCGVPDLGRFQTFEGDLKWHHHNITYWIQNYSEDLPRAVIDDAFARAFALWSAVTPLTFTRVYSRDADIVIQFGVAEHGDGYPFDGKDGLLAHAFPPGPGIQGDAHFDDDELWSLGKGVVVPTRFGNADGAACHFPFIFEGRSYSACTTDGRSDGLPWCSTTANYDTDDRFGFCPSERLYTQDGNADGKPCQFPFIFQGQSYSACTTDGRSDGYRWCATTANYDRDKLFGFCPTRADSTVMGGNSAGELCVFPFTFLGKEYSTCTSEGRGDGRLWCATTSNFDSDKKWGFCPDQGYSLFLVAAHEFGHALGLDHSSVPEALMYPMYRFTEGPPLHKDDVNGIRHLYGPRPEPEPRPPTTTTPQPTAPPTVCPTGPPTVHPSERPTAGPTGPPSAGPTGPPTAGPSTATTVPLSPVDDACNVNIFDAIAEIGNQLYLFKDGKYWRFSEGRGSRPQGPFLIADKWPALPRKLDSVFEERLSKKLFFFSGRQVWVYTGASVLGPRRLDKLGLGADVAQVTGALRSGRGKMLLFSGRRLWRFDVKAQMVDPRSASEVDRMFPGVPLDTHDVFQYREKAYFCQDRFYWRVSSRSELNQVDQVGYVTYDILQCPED
Description: as §1, §2

Endothelial cells = assay: Endothelial cell capillary tube formation; type: cell-based; conditions: read-out: Capillary Formation Inhibition % At 50 μM
Source text: Endothelial Cell Capillary Tube Formation
Some of the compounds were examined as to their potency to inhibit capillary formation, which is an in vitro model of angiogenesis, an essential step in the development of primary tumor and metastatic lesions. Endothelial cell migration to the newly formed tumor is the initial phase of angiogenesis, and is dependent on MMP expression. By using this assay that measures endothelial cell tube formation, the effects of some carbamoylphosphonates on angiogenesis at concentrations ranging from 100-5 μM were evaluated.
Description of the Endothelial Cell Capillary Tube Formation Experiment
Endothelial cells are harvested by 1 mM EDTA, and added to a Matrigel layer in a 24 well plate at 50,000 cells per well. After attachment, culture media (1 ml) is added and the plate is incubated as a monolayer culture. The plates are analyzed hourly using Hoffinan optics. This assay is used to evaluate inhibitory factors or stimulatory factors on capillary like structure formation, which may be added into the culture media.

murine melanoma = assay: Tumor growth and metastasis in vivo, murine melanoma model; parameters: species or system mice; conditions: for inhibition in vivo at 50 mg/kg: Mus musculus, 504 h; for oral bioavailability: values equal the PO % reduction in murine melanoma of Table 1
Source text: Tumor Growth and Metastasis in Animal Models—in vivo Test
The abilities of the novel carbamoylphosphonates to inhibit the formation of metastatic lesions in vivo were examined in the murine melanoma model both by intraperitoneal (IP) and peroral (PO) administration. […] This is especially important, since oral administration is the most convenient one for the patient, especially for long term chronic treatments such as those envisaged for drugs that are the subject of this application.

MMP-1 = target: T3, MMP-1 (Homo sapiens, UniProt P03956); assay: Selectivity towards different MMPs: MMP-1; type: biochemical; conditions: Table 2
T3 sequence (P03956 100-469): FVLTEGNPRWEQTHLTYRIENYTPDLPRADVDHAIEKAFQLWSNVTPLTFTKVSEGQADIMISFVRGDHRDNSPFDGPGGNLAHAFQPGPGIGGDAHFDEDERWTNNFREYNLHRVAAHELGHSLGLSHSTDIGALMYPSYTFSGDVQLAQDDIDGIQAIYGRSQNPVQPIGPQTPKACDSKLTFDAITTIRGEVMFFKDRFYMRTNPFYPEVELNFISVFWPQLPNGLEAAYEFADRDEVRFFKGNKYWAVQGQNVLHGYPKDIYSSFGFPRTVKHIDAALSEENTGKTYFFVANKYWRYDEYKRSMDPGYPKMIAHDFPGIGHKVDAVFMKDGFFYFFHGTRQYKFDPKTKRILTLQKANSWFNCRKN

MMP-3 = MMP-3 (Homo sapiens, UniProt P08254); assay: Selectivity towards different MMPs: MMP-3; type: biochemical; conditions: Table 2
Chain of MMP-3 (P08254 100-477, species assumed): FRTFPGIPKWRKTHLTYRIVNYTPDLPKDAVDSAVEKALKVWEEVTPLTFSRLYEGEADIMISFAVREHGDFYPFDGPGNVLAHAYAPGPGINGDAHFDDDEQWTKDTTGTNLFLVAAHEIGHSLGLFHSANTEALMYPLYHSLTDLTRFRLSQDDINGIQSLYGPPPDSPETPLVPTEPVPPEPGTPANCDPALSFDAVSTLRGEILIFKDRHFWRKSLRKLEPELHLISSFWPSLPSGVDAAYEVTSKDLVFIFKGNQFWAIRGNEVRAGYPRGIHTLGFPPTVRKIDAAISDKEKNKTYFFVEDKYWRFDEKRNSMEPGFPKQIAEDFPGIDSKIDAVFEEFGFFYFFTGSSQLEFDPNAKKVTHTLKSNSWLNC

MMP-8 = MMP-8 (Homo sapiens, UniProt P22894); assay: Selectivity towards different MMPs: MMP-8; type: biochemical; conditions: Table 2
Chain of MMP-8 (P22894 101-467, species assumed): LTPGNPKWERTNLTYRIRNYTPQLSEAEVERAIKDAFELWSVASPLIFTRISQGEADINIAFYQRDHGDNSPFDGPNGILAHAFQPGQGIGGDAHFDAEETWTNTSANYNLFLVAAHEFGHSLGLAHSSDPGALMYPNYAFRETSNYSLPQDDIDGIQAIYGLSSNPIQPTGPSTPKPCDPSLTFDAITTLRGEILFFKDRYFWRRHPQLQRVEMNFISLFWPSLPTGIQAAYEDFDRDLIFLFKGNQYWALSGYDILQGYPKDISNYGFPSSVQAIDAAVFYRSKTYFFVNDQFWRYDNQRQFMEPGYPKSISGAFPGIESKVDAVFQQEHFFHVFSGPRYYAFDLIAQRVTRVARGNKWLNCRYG

[1] = Acute in vivo toxicity in healthy mice; conditions: daily for two weeks at 50, 250 and 500 mg/kg
Source text: Determination of Acute in vivo Toxicity of Representative Carbamoylphosphonates

[2] = ip, read-out: In vivo murine melanoma % reduction IP
[3] = po, read-out: In vivo murine melanoma % reduction PO

SMILES	inhibition at 50 µM (cancer cells) [%]	IC50 (recombinant MMP-2) [µM]	IC50 (recombinant MMP-9) [µM]	inhibition at 50 µM (Endothelial cells) [%]	inhibition in vivo at 50 mg/kg (murine melanoma; [2]) [%]	IC50 (MMP-1) [µM]	IC50 (MMP-3) [µM]	IC50 (MMP-8) [µM]	inhibition in vivo at 50 mg/kg (murine melanoma; [3]) [%]	melting point [°C]	IC50 (recombinant MMP-2; Table 1, read-out: MMP-2 IC50) [µM]	also measured
O=P(O)(O)C(=S)NC1CCCCC1 [Compound 4, CyclohexylNHCSPO3H2]	50	0.1	> 100	38	68	–	–	–	–	–	–	–
N[C@H]1CCCC[C@@H]1NC(=O)P(=O)(O)O (relative stereo) [Compound 11a, Trans-2-aminocyclohexylcarbamoyl phosphonic acid]	–	20	> 100	–	–	90	25	50	–	–	–	–
O=C(N[C@@H]1C[C@@H]2CC[C@H]1C2)P(=O)(O)O (relative stereo) [Compound 10, N-[endo-2-norbornyl]carbamoylphosphonic acid]	25	0.1	> 100	30	87	> 100	> 100	> 100	80	164 to 165	–	times more active on MMP-2 than its analog or isomer (recombinant MMP-2): 150 times; IC50 (recombinant MMP-9; read-out: MMP-9 IC50 μM, Table 2): > 100 µM
O=C(NC1CCCCC1)P(=O)(O)O [Compound 3, CyclohexylNHCOPO3H2]	46	–	–	50	64	–	–	–	–	–	3	–
O=P(O)(O)C(=S)NC1CCCC1 [Compound 2, CyclopentylNHCSPO3H2]	70	0.07	50	–	56	–	–	–	70	–	–	–
NCCNC(=O)P(=O)(O)O [Compound 6, H2N(CH2)2NHCOPO3H2]	45	0.8	2	43	57	–	–	–	–	–	–	–
C[C@H](NC(=O)P(=O)(O)O)C1CCCCC1 [Compound 9a]	–	–	–	–	–	2	0.1	> 100	–	167 to 168	–	IC50 (recombinant MMP-2; Table 2, read-out: MMP-2 IC50): 1 µM; IC50 (recombinant MMP-9; Table 2, read-out: MMP-9 IC50): 10 µM
O=P(O)(O)C(=S)NCC1CCCCC1 [Compound 8, N-(Cyclohexylmethyl)thiocarbamoylphosphonic acid]	70	0.015	0.015	75	80	–	–	–	80	–	–	oral bioavailability (murine melanoma): improved oral bioavailability
O=C(NCC1CCCCC1)P(=O)(O)O [Compound 5, cyclohexylmethyl carbamoylphosphonic acid]	50	–	–	53	69	–	–	–	14	–	0.2	IC50 (recombinant MMP-9; Table 1, read-out: MMP-9 IC50): 1 µM; oral bioavailability (murine melanoma): 14%
CN(C)CCNC(=O)P(=O)(O)O [Compound 7, Me2N(CH2)2NHCOPO3H2]	66	0.03	20	75	75	–	–	–	29	–	–	–
C[C@@H](NC(=O)P(=O)(O)O)C1CCCCC1 [Compound 9, N—[(R)-1-Cyclohexylethyl]carbamoylphosphonic acid]	–	–	–	35	–	> 100	> 100	> 100	–	155 to 156	0.2	inhibition at 50 µM (cancer cells; 50 μM, Matrigel): 33%; times more active on MMP-2 than its analog or isomer (recombinant MMP-2): five times more active; IC50 (recombinant MMP-2; Table 2, read-out: MMP-2 IC50): 0.2 µM; IC50 (recombinant MMP-9; Table 1, read-out: MMP-9 IC50): ≥ 100 µM; IC50 (recombinant MMP-9; Table 2, read-out: MMP-9 IC50): > 100 µM; inhibition in vivo at 50 mg/kg (murine melanoma; IP, 50 mg/kg daily for 21 days, lung tumors counted, read-out: In vivo murine melanoma % reduction IP): 68%; inhibition in vivo at 50 mg/kg (murine melanoma; PO, 50 mg/kg daily for 21 days, lung tumors counted, read-out: In vivo murine melanoma % reduction PO): 90%; oral bioavailability (murine melanoma): 90%
O=C(NC1CCCC1)P(=O)(O)O [Compound 1, CyclopentylNHCOPO3H2]	65	–	–	70	72	–	–	–	71	–	0.08	toxicity [1]: toxic at 250 mg/kg and 500 mg/kg doses
O=C(N[C@@H]1C[C@H]2CC[C@@H]1C2)P(=O)(O)O (relative stereo) [Compound 10a, N-[exo-2-norbornyl]carbamoylphosphonic acid]	–	15	> 100	–	–	1	> 100	> 100	–	170 to 172	–	–
